Test results from US20200268701A1, “COMPOSITIONS AND METHODS FOR PRODUCING ELEVATED AND SUSTAINED KETOSIS” (University of South Florida, priority 2013, published 2020).
Counter-ions that a name gives are not always drawn.

Tests used:
[1] = parameters: species or system Sprague-Dawley rats; conditions: rat, in vivo
Description: (§1) Subject rats (n=74), 275-325 grams, were randomly assigned to a control group (no supplementation) or to one of three ketone precursor groups: medium chain triglyceride (MCT) oil (MO), mineral (Na^+/K+) salt of β-hydroxybutyrate (βHB) (SO), or SO+MO 1:1 combination (SM). The ketone mineral salt was developed and synthesized by Dr. Patrick Arnold from Prototype Nutrition. Pure pharmaceutical grade MCT oil was purchased from Now Foods (Bloomingdale, Ill.). SM was mixed at a 1:1 ratio.
(§2) Rats were supplemented with medium chain triglyceride (MCT) oil (MO), or a mineral (Na+/K+) salt of β-hydroxybutyrate (βHB) (SO), or SO+MO 1:1 mixture (SM) and force fed a daily at a dose of 5 g/kg body weight on days 1-14, followed by a 10 g/kg dose on days 15-28 rats Supplementation was given between 10 am and […] daily to eliminate variance based on regular eating patterns. Diets were not restricted for this study.
Once a week, animals were fasted for 4 hours prior to intragastric gavage of the appropriate ketone supplement. The four hour food restriction was used to eliminate normal variance in blood glucose and ketone levels due to food consumption. […]

[2] = human, in vivo, po
Protocol: All procedures were done in accordance with the University of South Florida Institutional Review Board (IRB) guidelines. BHB salts and MCT oil were given to human subjects as a ketogenic food supplement and blood measurements of BHB and/or glucose were taken at predetermined time points.
To determine the time course of ketosis, the subjects were orally given the test substances of a BHB salt solution (450 mL; 4%, approximately 18 g), an MCT oil (30 mL, approximately 30 g), or a combination of the a BHB salt solution and an MCT oil. Blood concentrations of glucose and BHB were determined utilizing a commercially available glucose/ketone monitoring system (Precision Xtra® blood glucose and ketone meter) at defined time points (0, 15, 30, 60, 120, 240 and 480 minutes following ingestion of the test substances).
The subject was administered a BHB salt solution containing 4% Na^+/K^+ BHB salts in solution, an MCT oil, or a combination of the 4% Na^+/K^+ BHB salts and the MCT oil. At 15, 30, 60, 120, 240 and 480 minutes after administration, blood was drawn. The subject returned on days 2 and 3 for additional supplements, with blood taken as on day 1. Levels of BHB in the blood were determined as described above.

[3] = Blood glucose levels of a fasted 70 kg subject after oral administration; assay type: in vivo, human; conditions: for Blood glucose levels Mean: 70 kg male, mean of 3 days; for Blood glucose levels Day 1 / Blood glucose levels Day 2 / Blood glucose levels Day 3: 70 kg person
Protocol: To determine the time course of ketosis, the subjects were orally given the test substances of a BHB salt solution (450 mL; 4%, approximately 18 g), an MCT oil (30 mL, approximately 30 g), or a combination of the a BHB salt solution and an MCT oil. Blood concentrations of glucose and BHB were determined utilizing a commercially available glucose/ketone monitoring system (Precision Xtra® blood glucose and ketone meter) at defined time points (0, 15, 30, 60, 120, 240 and 480 minutes following ingestion of the test substances). Subject (70 kg) was instructed to fast for three days, and was given a single daily oral administration of either ßHB salts (4% solution containing 11 grams sodium ßHB and 7.1 grams potassium ßHB), MCT oil or ßHB salts+MCT oil at 15, 30, 60, 120, 240 and 480 minutes on 3 consecutive days. At 15, 30, 60, 120, 240 and 480 minutes after administration, blood was drawn. The subject returned on days 2 and 3 for additional supplements, with blood taken as on day 1, as in Example 1. […] Blood glucose levels were determined as described above.

[4] = Blood βHB levels of a fasted 70 kg subject after oral administration; assay type: in vivo, human; parameters: unit: mM; conditions: for Blood βHB levels Mean: 70 kg male, mean of 3 days; for Blood βHB levels Day 1 / Blood βHB levels Day 2 / Blood βHB levels Day 3: 70 kg person
Protocol: To determine the time course of ketosis, the subjects were orally given the test substances of a BHB salt solution (450 mL; 4%, approximately 18 g), an MCT oil (30 mL, approximately 30 g), or a combination of the a BHB salt solution and an MCT oil. Blood concentrations of glucose and BHB were determined utilizing a commercially available glucose/ketone monitoring system (Precision Xtra® blood glucose and ketone meter) at defined time points (0, 15, 30, 60, 120, 240 and 480 minutes following ingestion of the test substances). Subject (70 kg) was instructed to fast for three days, and was given a single daily oral administration of either ßHB salts (4% solution containing 11 grams sodium ßHB and 7.1 grams potassium ßHB), MCT oil or ßHB salts+MCT oil at 15, 30, 60, 120, 240 and 480 minutes on 3 consecutive days. At 15, 30, 60, 120, 240 and 480 minutes after administration, blood was drawn. The subject returned on days 2 and 3 for additional supplements, with blood taken as on day 1, as in Example 1.

[5] = Change of body weight in rats during 28 days of ketone supplementation; assay type: in vivo, Sprague-Dawley rats; conditions: daily for 28 days
Protocol: Diets were not restricted for this study. Once a week, animals were fasted for 4 hours prior to intragastric gavage of the appropriate ketone supplement. The four hour food restriction was used to eliminate normal variance in blood glucose and ketone levels due to food consumption. […] Animals were weighed once per week to maintain accurate dosage using the […] Toledo SB 16001 scales. Rats were administered SO, MO, or SM daily for 28 days as described above. Each week the animals were weighed. […] The control animals continued to gain weight throughout the month-long study. In comparison, the ketone supplement treatment groups all gained less weight. […] A key finding of this study is that the SM group was able to limit weight gain in an unexpected way as the amounts of BHB and MCT when combined were much lower than the amounts of those ingredients used in the SO and MO treatment groups. This effect on body weight gain is likely due to appetite suppression caused by the supplements, rather than a reduced intake of the supplement itself, as force feeding controlled for dosing.

[6] = Blood glucose levels in rats after ketone supplementation; assay type: in vivo, Sprague-Dawley rats
Description: as §1, §2
Once a week, animals were fasted for 4 hours prior to intragastric gavage of the appropriate ketone supplement. The four hour food restriction was used to eliminate normal variance in blood glucose and ketone levels due to food consumption. Whole blood samples (10 μL) were acquired from the saphenous vein of the subjects for analysis of glucose and βHB utilizing the commercially available glucose and ketone monitoring system Precision Xtra™ (Abbott Laboratories, Abbott Park, Ill.) at time intervals of 0, 0.5, 1, 4, 8, and 12 hours after ketone precursor supplements were administered, or until βHB returned to baseline. On Day 0 (Week 0) and Day 28 (Week 4), whole blood samples (10 μL) were acquired for analysis of total cholesterol, HDL, and triglycerides for a lipid panel utilizing the commercially available home cholesterol analyzer Cardio Chek™ (Polymer Technology Systems, Inc., Indianapolis, Ind.) at time 0. Animals were weighed once per week to maintain accurate dosage using the Mittler Toledo SB 16001 scales.

medium chain triglyceride (MCT) oil [MCT (30 mL)]
Triglyceride levels at week 4 compared with week 0 [1]: little change | Elevation in BHB levels (in words) [2]: little elevation in BHB levels | Time of peak plasma BHB level after administration [2]: 60 min

CC(O)CC(=O)O (stereo not drawn) [BHB salt (450 mL), β-hydroxybutyrate]
Blood glucose levels Mean ([3]; time 0 minutes): 90.00 | Blood glucose levels Mean ([3]; time 30 minutes): 87.00 | Blood glucose levels Mean ([3]; time 60 minutes): 81.00 | Blood glucose levels Mean ([3]; time 120 minutes): 77.33 | Blood glucose levels Mean ([3]; time 240 minutes): 77.33 | Blood glucose levels Mean ([3]; time 480 minutes): 74.67 | Blood glucose levels Day 1 ([3]; time 0 minutes): 100 | Blood glucose levels Day 2 ([3]; time 0 minutes): 90 | Blood glucose levels Day 3 ([3]; time 0 minutes): 80 | Blood glucose levels Day 1 ([3]; time 30 minutes): 95 | Blood glucose levels Day 2 ([3]; time 30 minutes): 95 | Blood glucose levels Day 3 ([3]; time 30 minutes): 71 | Blood glucose levels Day 1 ([3]; time 60 minutes): 85 | Blood glucose levels Day 2 ([3]; time 60 minutes): 90 | Blood glucose levels Day 3 ([3]; time 60 minutes): 68 | Blood glucose levels Day 1 ([3]; time 120 minutes): 82 | Blood glucose levels Day 2 ([3]; time 120 minutes): 85 | Blood glucose levels Day 3 ([3]; time 120 minutes): 65 | Blood glucose levels Day 1 ([3]; time 240 minutes): 80 | Blood glucose levels Day 2 ([3]; time 240 minutes): 84 | Blood glucose levels Day 3 ([3]; time 240 minutes): 68 | Blood glucose levels Day 1 ([3]; time 480 minutes): 76 | Blood glucose levels Day 2 ([3]; time 480 minutes): 80 | Blood glucose levels Day 3 ([3]; time 480 minutes): 68 | Triglyceride levels at week 4 compared with week 0 [1]: mildly elevated | Blood βHB levels Mean ([4]; time 0 minutes): 0.87 | Blood βHB levels Mean ([4]; time 30 minutes): 1.73 | Blood βHB levels Mean ([4]; time 60 minutes): 2.77 | Blood βHB levels Mean ([4]; time 120 minutes): 1.73 | Blood βHB levels Mean ([4]; time 240 minutes): 1.53 | Blood βHB levels Mean ([4]; time 480 minutes): 1.53 | Blood βHB levels Day 1 ([4]; time 0 minutes): 0.2 | Blood βHB levels Day 2 ([4]; time 0 minutes): 0.6 | Blood βHB levels Day 3 ([4]; time 0 minutes): 1.8 | Blood βHB levels Day 1 ([4]; time 30 minutes): 0.7 | Blood βHB levels Day 2 ([4]; time 30 minutes): 1.8 | Blood βHB levels Day 3 ([4]; time 30 minutes): 2.7 | Blood βHB levels Day 1 ([4]; time 60 minutes): 1.1 | Blood βHB levels Day 2 ([4]; time 60 minutes): 2.4 | Blood βHB levels Day 3 ([4]; time 60 minutes): 4.8 | Blood βHB levels Day 1 ([4]; time 120 minutes): 0.3 | Blood βHB levels Day 2 ([4]; time 120 minutes): 1.6 | Blood βHB levels Day 3 ([4]; time 120 minutes): 3.3 | Blood βHB levels Day 1 ([4]; time 240 minutes): 0.4 | Blood βHB levels Day 2 ([4]; time 240 minutes): 1.2 | Blood βHB levels Day 3 ([4]; time 240 minutes): 3 | Blood βHB levels Day 1 ([4]; time 480 minutes): 0.6 | Blood βHB levels Day 2 ([4]; time 480 minutes): 1.6 | Blood βHB levels Day 3 ([4]; time 480 minutes): 2.4 | Body weight gain compared to controls (in words) [5]: gained significantly less weight compared to controls | Blood glucose versus control (in words) ([6]; 5 g/kg, week 0): did not show any significant difference compared to control | Blood glucose versus control (in words) ([6]; 5 g/kg, week 1): began reducing glucose by 8 hours | Blood glucose versus control (in words) ([6]; 10 g/kg, week 2 onward): reduced glucose levels at 30 minutes through 8 hours | Elevation in BHB levels (in words) [2]: higher elevation in BHB levels than MCT oil alone
